Assay results: patent US10168342B2, “Lipid probes and uses thereof” (THE SCRIPPS RESEARCH INSTITUTE, priority 2015, dated 2019)
Where two headings read alike, the source gives them in different places.

Key:
[1] = target: T1, AEA-DA lipid probe targets in Neuro2a cells (Mus musculus, UniProt Q8BVE8)
T1 sequence (Q8BVE8 1-1365): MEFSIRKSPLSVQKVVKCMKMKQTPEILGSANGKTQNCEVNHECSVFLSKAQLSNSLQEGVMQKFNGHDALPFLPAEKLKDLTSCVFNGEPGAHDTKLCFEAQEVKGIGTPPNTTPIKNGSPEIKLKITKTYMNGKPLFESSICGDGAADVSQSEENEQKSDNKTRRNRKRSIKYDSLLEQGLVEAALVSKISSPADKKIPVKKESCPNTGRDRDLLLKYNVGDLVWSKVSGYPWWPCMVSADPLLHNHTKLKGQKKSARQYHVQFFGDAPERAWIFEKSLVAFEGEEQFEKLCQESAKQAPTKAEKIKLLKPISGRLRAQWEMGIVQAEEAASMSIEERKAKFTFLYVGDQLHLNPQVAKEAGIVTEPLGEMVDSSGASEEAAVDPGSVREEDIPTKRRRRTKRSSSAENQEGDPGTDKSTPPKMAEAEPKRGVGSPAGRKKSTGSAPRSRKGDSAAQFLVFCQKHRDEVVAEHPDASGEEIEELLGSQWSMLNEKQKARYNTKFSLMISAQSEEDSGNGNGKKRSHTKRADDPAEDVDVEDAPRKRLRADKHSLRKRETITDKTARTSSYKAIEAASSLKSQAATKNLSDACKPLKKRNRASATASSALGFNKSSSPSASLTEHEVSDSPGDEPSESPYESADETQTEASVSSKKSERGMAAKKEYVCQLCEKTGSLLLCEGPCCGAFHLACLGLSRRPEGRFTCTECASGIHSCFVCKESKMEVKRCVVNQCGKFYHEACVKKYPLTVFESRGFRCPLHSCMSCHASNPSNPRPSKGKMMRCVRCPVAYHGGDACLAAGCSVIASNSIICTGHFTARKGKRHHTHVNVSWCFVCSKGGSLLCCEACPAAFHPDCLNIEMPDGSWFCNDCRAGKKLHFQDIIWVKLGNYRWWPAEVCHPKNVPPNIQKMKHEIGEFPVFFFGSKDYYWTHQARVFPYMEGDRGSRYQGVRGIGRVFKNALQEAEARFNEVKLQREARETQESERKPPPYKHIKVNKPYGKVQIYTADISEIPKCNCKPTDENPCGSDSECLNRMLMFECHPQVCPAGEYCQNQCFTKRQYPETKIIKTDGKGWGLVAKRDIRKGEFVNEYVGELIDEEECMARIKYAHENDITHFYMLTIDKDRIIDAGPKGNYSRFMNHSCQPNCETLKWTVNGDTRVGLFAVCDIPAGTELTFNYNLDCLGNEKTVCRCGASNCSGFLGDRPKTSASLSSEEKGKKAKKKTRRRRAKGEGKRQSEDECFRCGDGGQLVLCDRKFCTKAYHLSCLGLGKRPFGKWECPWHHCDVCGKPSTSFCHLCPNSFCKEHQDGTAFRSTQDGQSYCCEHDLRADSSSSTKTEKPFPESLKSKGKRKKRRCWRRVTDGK

[2] = target: T2, AEA-DA lipid probe targets in Neuro2a cells (Mus musculus, UniProt Q921T2)
T2 sequence (Q921T2 1-595): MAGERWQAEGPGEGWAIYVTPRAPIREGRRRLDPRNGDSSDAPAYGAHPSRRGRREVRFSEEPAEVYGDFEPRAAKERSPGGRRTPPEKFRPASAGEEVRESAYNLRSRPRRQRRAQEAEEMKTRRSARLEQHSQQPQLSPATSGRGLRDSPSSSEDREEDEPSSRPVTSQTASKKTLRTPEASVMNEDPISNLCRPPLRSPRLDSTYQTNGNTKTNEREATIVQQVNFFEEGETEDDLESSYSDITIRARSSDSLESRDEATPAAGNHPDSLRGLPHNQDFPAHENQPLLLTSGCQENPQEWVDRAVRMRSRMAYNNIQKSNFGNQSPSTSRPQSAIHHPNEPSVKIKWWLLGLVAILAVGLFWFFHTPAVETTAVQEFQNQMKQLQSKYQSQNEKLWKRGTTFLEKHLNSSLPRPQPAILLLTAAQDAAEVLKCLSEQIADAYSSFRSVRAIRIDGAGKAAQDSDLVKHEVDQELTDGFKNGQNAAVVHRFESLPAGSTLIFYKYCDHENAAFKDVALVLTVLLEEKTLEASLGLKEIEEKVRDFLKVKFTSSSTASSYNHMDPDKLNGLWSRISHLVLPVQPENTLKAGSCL

[3] = target: AEA-DA lipid probe targets in Neuro2a cells (Mus musculus, UniProt Q3UV70); details: protein Pdp1; Neuro2a cells; competitor 25 μM
[4] = target: AEA-DA lipid probe targets in Neuro2a cells (Mus musculus, UniProt Q99KI3); details: competitor 25 μM
[5] = target: AEA-DA lipid probe targets in Neuro2a cells (Mus musculus, UniProt Q8VCL2); details: competitor 25 μM
Sequence of AEA-DA lipid probe targets in Neuro2a cells (Mus musculus, UniProt Q8VCL2) (Q8VCL2 42-255): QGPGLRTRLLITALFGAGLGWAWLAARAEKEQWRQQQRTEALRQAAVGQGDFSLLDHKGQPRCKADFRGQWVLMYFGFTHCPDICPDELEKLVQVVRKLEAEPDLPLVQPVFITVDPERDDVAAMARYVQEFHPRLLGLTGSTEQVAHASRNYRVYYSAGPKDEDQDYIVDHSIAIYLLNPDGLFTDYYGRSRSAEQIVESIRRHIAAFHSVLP

Sequence of AEA-DA lipid probe targets in Neuro2a cells (Mus musculus, UniProt Q3UV70) (Q3UV70 72-538): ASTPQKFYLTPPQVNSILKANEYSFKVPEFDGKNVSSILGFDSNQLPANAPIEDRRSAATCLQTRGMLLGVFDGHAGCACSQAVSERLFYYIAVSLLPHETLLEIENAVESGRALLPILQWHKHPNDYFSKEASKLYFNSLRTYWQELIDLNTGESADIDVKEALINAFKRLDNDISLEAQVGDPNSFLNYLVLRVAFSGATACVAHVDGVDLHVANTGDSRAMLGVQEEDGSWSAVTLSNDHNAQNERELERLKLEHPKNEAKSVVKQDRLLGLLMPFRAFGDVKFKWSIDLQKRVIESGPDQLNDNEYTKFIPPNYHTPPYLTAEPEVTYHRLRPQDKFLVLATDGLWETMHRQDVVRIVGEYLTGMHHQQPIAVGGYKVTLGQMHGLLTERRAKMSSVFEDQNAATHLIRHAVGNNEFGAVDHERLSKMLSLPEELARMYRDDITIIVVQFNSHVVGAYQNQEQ
Sequence of AEA-DA lipid probe targets in Neuro2a cells (Mus musculus, UniProt Q99KI3) (Q99KI3 whole entry): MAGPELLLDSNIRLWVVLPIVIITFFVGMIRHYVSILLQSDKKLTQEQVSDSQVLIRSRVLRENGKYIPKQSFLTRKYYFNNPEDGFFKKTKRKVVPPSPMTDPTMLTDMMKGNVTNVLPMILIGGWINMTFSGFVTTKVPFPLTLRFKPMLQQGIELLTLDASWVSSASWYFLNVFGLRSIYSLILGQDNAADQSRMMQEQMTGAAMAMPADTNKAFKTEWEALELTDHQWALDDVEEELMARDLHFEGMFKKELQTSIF

CCCCC/C=C\C/C=C\C/C=C\C/C=C\CCCC(=O)NCCO [AEA, anandamide, reference compound]
SILAC ratio Whsc1 ([1]; competitor 200 μM): 1.0
SILAC ratio Tor1aip1 ([2]; competitor 200 μM): 1.5

O=C(/C=C/c1cccnc1)NCCCCC1CCN(C(=O)c2ccccc2)CC1 [FK-866, reference compound]
SILAC ratio (AEA-DA competition) [3]: 0.9

CN1CCN(C(=O)c2c(-c3ccccc3)c3cc([N+](=O)[O-])ccc3n2C)CC1 [KML110, (1-Methyl-5-nitro-3-phenyl-1H-indol-2-yl)(4-methylpiperazin-1-yl)methanone]
SILAC ratio Emc3 [4]: 1.0
SILAC ratio Sco2 [5]: 1.5

CN1CCN(C(=O)c2[nH]c3ccc([N+](=O)[O-])cc3c2-c2ccccc2)CC1 [MJN228, (4-Methylpiperazin-1-yl)(5-nitro-3-phenyl-1H-indol-2-yl)methanone]
SILAC ratio (AEA-DA competition) [3]: 1.4
SILAC ratio Whsc1 ([1]; competitor 10 μM): 1.4
SILAC ratio Whsc1 ([1]; competitor 25 μM): 1.2
SILAC ratio Whsc1 ([1]; competitor 100 μM): 1.6
SILAC ratio Tor1aip1 ([2]; competitor 10 μM): 1.3
SILAC ratio Tor1aip1 ([2]; competitor 25 μM): 1.3
SILAC ratio Tor1aip1 ([2]; competitor 50 μM): 1.3
SILAC ratio Tor1aip1 ([2]; competitor 100 μM): 2.0

C=CCN(C)CCCCCCOc1ccc(C(=O)c2ccc(Br)cc2)c(F)c1 [Ro 48-8071, reference compound]
SILAC ratio Emc3 [4]: 1.5
SILAC ratio Sco2 [5]: 1.0
